Converted amounts (≈) assume the structure as drawn.
Key:
[1] = system: Mycoplasmoides gallisepticum; test: Antimycoplasmal activity against Mycoplasma gallisepticum K514 without the extra addition of copper; assay type: functional
[2] = system: Mycoplasmoides gallisepticum; test: Antimycoplasmal activity against Mycoplasma gallisepticum K514 with the extra addition of copper (40 uM); assay type: functional

`Cc1cc(C)cc(C(=O)Nc2nc(-c3ccccn3)cc3ccccc23)c1` showed an MIC [1] greater than 100 µM and an MIC [2] of 0.39 µM (≈ 0.138 µg/mL).
With `O=C(Nc1nc(-c2ccccn2)cc2ccccc12)c1ccccc1` the MIC [1] was 12.3 µM (≈ 4.01 µg/mL) and the MIC [2] was 0.1 µM (≈ 0.0325 µg/mL).
`Nc1nc(-c2ccccn2)cc2ccccc12` was tested, and the MIC [1] was 452 µM (≈ 100 µg/mL) and the MIC [2] was 0.45 µM (≈ 0.0996 µg/mL).
`Cc1ccc(C(=O)Nc2nc(-c3ccccn3)cc3ccccc23)cc1C` was tested, and the MIC [1] was greater than 100 µM and the MIC [2] was 0.39 µM (≈ 0.138 µg/mL).
Work on `COc1ccc(C(=O)Nc2nc(-c3ccccn3)cc3ccccc23)cc1` yielded an MIC [1] greater than 160 µM and an MIC [2] of 0.18 µM (≈ 0.064 µg/mL).
In the case of `CCC(=O)Nc1nc(-c2ccccn2)cc2ccccc12`, the MIC [1] is reported as greater than 25 µM and the MIC [2] is reported as 0.45 µM (≈ 0.125 µg/mL).
With `CC[C@H]1OC(=O)C[C@@H](O)[C@H](C)[C@@H](O[C@@H]2O[C@H](C)[C@@H](O[C@H]3C[C@@](C)(O)[C@@H](O)[C@H](C)O3)[C@H](N(C)C)[C@H]2O)[C@@H](CC=O)C[C@@H](C)C(=O)/C=C/C(C)=C/[C@@H]1CO[C@@H]1O[C@H](C)[C@@H](O)[C@@H](OC)[C@H]1OC` [TYLOSIN] the MIC [1] was 0.1 µM (≈ 0.0916 µg/mL) and the MIC [2] was 0.1 µM (≈ 0.0916 µg/mL).
Compound `CCCCC(CC)C(=O)Nc1nc(-c2ccccn2)cc2ccccc12` (stereo not drawn) has an MIC [1] greater than 170 µM and an MIC [2] of 0.36 µM (≈ 0.125 µg/mL).
`O=C(Nc1nc(-c2ccccn2)cc2ccccc12)c1cccc(Cl)c1` gave an MIC [1] greater than 23 µM and an MIC [2] of 0.35 µM (≈ 0.126 µg/mL).
With `Cc1ccc(C)c(C(=O)Nc2nc(-c3ccccn3)cc3ccccc23)c1` the MIC [1] was greater than 100 µM and the MIC [2] was 0.39 µM (≈ 0.138 µg/mL).
Compound `CC(C)C(=O)Nc1nc(-c2ccccn2)cc2ccccc12` has an MIC [1] greater than 25 µM and an MIC [2] of 0.22 µM (≈ 0.0641 µg/mL).
Work on CUPRIC SULFATE yielded an MIC [1] of 400 µM.
In the case of `Cc1cccc(C(=O)Nc2nc(-c3ccccn3)cc3ccccc23)c1`, the MIC [1] is reported as greater than 23 µM and the MIC [2] is reported as 0.09 µM (≈ 0.0305 µg/mL).
Compound `Cc1ccc(C(=O)Nc2nc(-c3ccccn3)cc3ccccc23)cc1` has an MIC [1] greater than 160 µM and an MIC [2] of 0.19 µM (≈ 0.0645 µg/mL).
With `CC(C)(C)C(=O)Nc1nc(-c2ccccn2)cc2ccccc12` the MIC [1] was greater than 25 µM and the MIC [2] was 0.21 µM (≈ 0.0641 µg/mL).
Compound `Cc1cccc(C)c1C(=O)Nc1nc(-c2ccccn2)cc2ccccc12` has an MIC [1] greater than 25 µM and an MIC [2] of 0.78 µM (≈ 0.276 µg/mL).
`Cc1ccc(C(=O)Nc2nc(-c3ccccn3)cc3ccccc23)c(C)c1` gave an MIC [1] greater than 100 µM and an MIC [2] of 0.39 µM (≈ 0.138 µg/mL).
For `O=C(Nc1nc(-c2ccccn2)cc2ccccc12)c1ccc(Cl)cc1`, the MIC [1] was greater than 160 µM and the MIC [2] was 0.35 µM (≈ 0.126 µg/mL).
Work on `COc1cccc(C(=O)Nc2nc(-c3ccccn3)cc3ccccc23)c1` yielded an MIC [1] greater than 23 µM and an MIC [2] of 0.18 µM (≈ 0.064 µg/mL).
Work on `CCCCCCCCCC(=O)Nc1nc(-c2ccccn2)cc2ccccc12` yielded an MIC [1] greater than 170 µM and an MIC [2] of 0.34 µM (≈ 0.128 µg/mL).
With `CC(=O)Nc1nc(-c2ccccn2)cc2ccccc12` the MIC [1] was greater than 25 µM and the MIC [2] was 1.9 µM (≈ 0.5 µg/mL).
`O=C(Nc1nc(-c2ccccn2)cc2ccccc12)c1ccc(Cl)c(Cl)c1` showed an MIC [1] greater than 160 µM and an MIC [2] of 0.64 µM (≈ 0.252 µg/mL).

From ChEMBL document CHEMBL1124073, “Synthesis and copper-dependent antimycoplasmal activity of 1-amino-3-(2-pyridyl)isoquinoline derivatives. 1. Amides” (1988)
